Data as given in patent US20020110801A1, “A Method for screening compounds for the modulation of cognitive function” (priority 1998, published 2002).
Marks after values point to notes of the source that are not given here.

Assays:
[1] = tested on: distribution of GFP-actin fluorescence in hippocampal neurons; experiment: GFP-actin fluorescence intensity in successive video frames; assay type: cell-based, rat
Source text: In this example it is shown that AMPA treatment appears to involve a redistribution of spine actin. A further consistent consequence of treating hippocampal neurons with AMPA is a visible change in the distribution of GFP-actin fluorescence involving an apparent shift toward a concentration in the centre of the spine head. GFP-actin fluorescence intensity may be measured in successive frames of video recordings in which AMPA is transiently present. Measurements are made for a whole dendritic segment and within boxes of the same area placed in the center of spine heads or on the dendritic shaft, respectively. […] This phenomenon could reflect some general aspect of gfp fluorescence in response to an altered ion concentration or pH of the local cytoplasm. Fluorescence excitation of gfp in solution decreases at low pH. Therefore the observed decrease in brightness might be attributed to a lowered pH, mediated by glutamate receptor activation. Application of glutamate or Ca2+ ionophores to rat primary cultured hippocampal neurons is shown to induce a persistent acidosis. To account for this effect, data are normalized for single spines to the overall brightness of the dendrite. The average brightness from the boxes during the recordings for three randomly selected spines may then be evaluated. […] For above mentioned reasons, it is not entirely clear, if the apparent reduction in spine diameter is due to loss of actin fluorescence because of pH shifts or actin concentration in the center of spine heads, but comparison of phase and GFP-actin pictures argue in favour of changes in spine head size. The same caution has to apply to changes in the diameter of the spine neck, which have been postulated to influence synaptic weight by altering the electrical resistance. Those structures are extremely small and for a detailed analysis electronmicroscopic analysis would be favourable.

[2] = tested on: dendritic spine motility in hippocampal neurons expressing GFP-actin; assay type: cell-based, rat; details: for effect of NMDA receptor blockade on spine motility: antagonist alone; for influence on the inhibition of motility by AMPA: antagonist present with AMPA
Experimental: In this example it is shown that dendritic spine motility is inhibited by AMPA. To assess the influence of glutamate receptors on dendritic spine motility video recordings are made during which agonists and antagonists of ionotropic glutamate receptors are transiently applied to hippocampal neurons expressing GFP-actin. For example, such a recording is made from part of the dendrite of a GFP-actin expressing cell in a culture that is exposed to 200 nM AMPA. In initial titration experiments, AMPA is effective at concentrations as low as 50 nM. […] The striking extent of this motility blockade may be illustrated by video data. […] In order to exclude the effect being a consequence of indirect NMDA receptor activation, the experiment may be repeated in presence of the selective NMDA receptor antagonists APV and MK801. Data may be recorded for several spines on a single dendrite segment at high magnification so that the effect of AMPA on individual spines is visible. […] The results for APV are equivalent. Such frames are taken from a longer video recording encompassing a much larger area of this dendrite and several different drug combinations. […]
All reagents for cell culturing are obtained either from Life Technologies, Basel, Switzerland, or from Sigma Chemicals/Fluka Biochemicals, Buchs, Switzerland. Cultures of primary rat hippocampal neurons are established exactly according to Goslin and Banker (Rat hippocampal neurons in low-density culture, in Culturing Nerve Cells (Bradford Book, MIT Press, Cambridge, Mass., 1991) G. Banker and K. Goslin, eds.). Briefly, dissected hippocampi of E19 rat embryos are digested with 0.25% trypsin for 15 min at 37° C. and triturated to yield a single cell suspension using a narrow-bore pasteur pipet. Neurons are plated onto polylysine treated glass coverslips in Eagle's minimal essential medium supplemented with 10% horse serum. After a 4 hr incubation the coverslips are turned over onto confluent layers of primary astroglial feeder layers in chemically defined Eagle's minimal essential medium with N2 supplement. Over a time period of 3-4 weeks, neurons develop large networks of processes and eventually matured to carry synapses on dendritic spines.
For live imaging, coverslips are mounted in saline in closed observation chambers (Type 1, Life Imaging Services, Olten, Switzerland) and placed at 37° C. on a DM-IRBE inverted fluorescence microscope (Leica, Basel, Switzerland) equipped with high numerical aperture oil lenses and a GFP-optimized filter set (Chroma Technologies, Brattleboro, Vt., USA). […]
Drugs are either applied by gravity feed perfusion or by removing the chamber lid and adding the test substance. […] The pH is adjusted to 7.2. [NMDA and AMPA receptor activity is influenced by the extracellular concentration of protons (Kashiwagi et al., 1997; Saybasili et al., 1998; Mc Donald et al., 1998)]

rats = details: based on minimal alveolar concentration (MAC) in rats; cited from earlier work
[3] = tested on: actin-based motility in dendritic spines; experiment: video time-lapse recording of dendritic spine motility (shape factor) in GFP-actin transfected hippocampal neurons, volatile anaesthetics; assay type: cell-based, rat; details: for Effective conc. for spine motility: calculated from concentration of saturated solution at 25° C. used as stock solution; for effect on spine shape change / spine motility in presence of the anaesthetic: clinically relevant concentrations in saline; for spine motility after the anaesthetic is removed: washout
Experimental: To examine the influence of volatile anaesthetics on spine motility their effects on live, cultured hippocampal neurons that have been transfected with green fluorescent protein-tagged actin (GFP-actin) to render their dendritic spines visible are studied.
The following example further illustrates the employment of an assay according to the invention. First, the shape of a dendritic spine on a rat hippocampal neuron in culture as visualized by GFP-actin enriched in the spine head is recorded about every 5 sec over a period of about 6 min prior to perfusion with isoflurane. Then the cells are slowly perfused with isoflurane at clinically relevant concentrations in saline. This step is followed by an additional time-lapse recording over about 6 min. Then a morphometric analysis of spine shape is done using the integrated morphometry analysis interface in Metamorph 3.0. In particular, the shape factor calculated from the perimeter and the area of the spine illustrates changes in spine shape.
All reagents for cell culturing are obtained either from Life Technologies, Basel, Switzerland, or from Sigma Chemicals/Fluka Biochemicals, Buchs, Switzerland. […] Neurons are plated onto polylysine treated glass coverslips in Eagle's minimal essential medium supplemented with 10% horse serum. After a 4 hr incubation the coverslips are turned over onto confluent layers of primary astroglial feeder layers in chemically defined Eagle's minimal essential medium with N2 supplement. Over a time period of 3-4 weeks, neurons develop large networks of processes and eventually matured to carry synapses on dendritic spines.
For live imaging, coverslips are mounted in saline in closed observation chambers (Type 1, Life Imaging Services, Olten, Switzerland) and placed at 37° C. on a DM-IRBE inverted fluorescence microscope (Leica, Basel, Switzerland) equipped with high numerical aperture oil lenses and a GFP-optimized filter set (Chroma Technologies, Brattleboro, Vt., USA).
Images are captured using a cooled CCD camera (Princeton Instruments, Trenton, N.J., USA) and MetaMorph Imaging Software version 3.0 (Universal Imaging Corporation, West Chester, Pa., USA). Anaesthetics are diluted from saturated solutions in saline into prewarmed saline immediately prior to slow perfusion into the closed observation chambers at a rate of approx. 0.5 ml/min for a total exchange of 5 ml volume.
For analysis of spine shape over time the integrated morphometric function of MetaMorph 3.0, in particular the shape factor of thresholded objects calculated from their perimeter and their area, is used to log the data for individual images directly to Microsoft Excel 97.

[4] = in phosphate-buffered saline; McKenzie et al. 1995; cited from earlier work
pure actin = experiment: pyrene-actin fluorescence assay of actin filament assembly in vitro; assay type: biochemical; details: during assembly or added to pre-formed filaments
Experimental: Since actin-based motility in dendritic spines depends on the actin polymerization cycle the possible influence of isoflurane on actin filament assembly is tested in vitro using a well-established pyrene-actin fluorescence assay.

rat embryo fibroblasts = experiment: TPA-induced membrane ruffling, rhodamine-phalloidin staining of actin; assay type: cell-based; details: pretreatment of cells; 100 nM TPA 15 min
Source text: The results of these experiments on neurons pose the question of whether volatile anaesthetics act directly on actin in dendritic spines or indirectly through neurotransmitter receptors, which are also influenced by these agents at clinically relevant concentrations, or some other component of central synapses. To choose between these possibilities the influence of volatile anaesthetics on actin-based motility is examined in fibroblastic cells, where neurotransmitter receptors and other elements of the synaptic machinery are absent. […] Resting layers of rat embryo fibroblasts in saline are treated for 15 min with 100 nM TPA which induces membrane ruffling. Cells are fixed and stained with rhodamine-labelled phalloidin to visualize actin enrichment in ruffles at the edges of the cells. […]
For analysis of the actin cytoskeleton in REF52, cells plated on glass coverlips are serum-starved for several hours prior to the experiment. […] Cells are then fixed with 4% paraformaldehyde (Fluka Biochemicals, Buchs, Switzerland) in phosphate-buffered saline with 0.02% Triton X-100 (Fluka Biochemicals, Buchs, Switzerland) and […] rhodamine-labelled phalloidin F(Sigma Chemicals, Buchs, Switzerland) for 10 min at room temperature, rinsed in phosphate-buffered saline and mounted in Vectashield (Vector Laboratories, Burlingame, Calif., USA) for inspection on the fluorescence microscope.

tadpoles = details: based on EC50 in tadpoles; read-out: Effective conc. for anesthesia; cited from earlier work

Cc1onc(O)c1CC(N)C(=O)O (stereo not drawn) [AMPA, α-amino-3-hydroxy-5-methylisoxazole-4-propionic acid]
GFP-actin fluorescence intensity over the whole dendrite ([1]; after application of AMPA): decrease in intensity
average brightness of the dendritic shaft ([1]; normalized to overall brightness of the dendrite): reduced
GFP-actin fluorescence intensity in the centre of spine heads ([1]; three randomly selected spines, normalized to overall brightness of the dendrite): marked increase
dendritic varicosities associated with subsequent cell death ([2]; 50 nM to 200 nM): do not produce dendritic varicosities
reversibility of effect on spine motility ([2]; 50 nM to 200 nM): reversible
spine movement ([2]; 200 nM AMPA present): spine movement effectively ceases
lowest effective concentration on spine motility ([2]; initial titration experiments): 50 nM

FC(F)OC(F)(F)C(F)Cl (stereo not shown) [Enflurane]
Effective conc. for anesthesia (rats): 0.64^a mM
Effective conc. for spine motility [3]: 0.30 mM
concentration of saturated solution [4]: 11.9 mM

C[C@]12N[C@H](Cc3ccccc31)c1ccccc12 [MK801]
effect of NMDA receptor blockade on spine motility [2]: does not inhibit spine motility
influence on the inhibition of motility by AMPA [2]: does not influence

C=C(C)[C@H]1CN[C@H](C(=O)O)[C@H]1CC(=O)O [Kainate]
mimics the effect of AMPA on spine motility [2]: mimicked

COC(F)(F)C(Cl)Cl [methoxyflurane, Methoxyflurane]
concentration of saturated solution [4]: 9.1 mM

FC(F)OC(Cl)C(F)(F)F (stereo not shown) [Isoflurane]
effect on polymerization state of pure actin (pure actin): no detectable effect
Effective conc. for anesthesia (rats): 0.31^a mM
Effective conc. for spine motility [3]: 0.30 mM
effect on spine shape change / spine motility in presence of the anaesthetic [3]: it remains constant
spine motility ([3]; dilution of 1:50 of saturated solution): fully inhibited
spine motility ([3]; dilution of 1:60 of saturated solution): fully motile
spine motility ([3]; dilution of 1:100 of saturated solution): fully motile
spine motility after the anaesthetic is removed [3]: recovery of motility
TPA-induced actin ruffles (rat embryo fibroblasts): prevents TPA-induced actin ruffles
concentration of saturated solution [4]: 15.3 mM

FC(F)(F)C(Cl)Br (stereo not shown) [Halothane]
Effective conc. for anesthesia (rats): 0.27^a mM
Effective conc. for spine motility [3]: 0.23 mM

ClC(Cl)Cl [Chloroform]
Effective conc. for spine motility [3]: 1.33 mM
effect on spine shape change / spine motility in presence of the anaesthetic [3]: variation in spine shape is minimal
spine motility after the anaesthetic is removed [3]: rapid changes in spine shape are resumed
EC50 (tadpoles): 1.3 mM
concentration of saturated solution [4]: 66 mM

Cc1onc(OCC(=O)O)c1CC(N)C(=O)O (stereo not shown) [AMOA, 2-amino-3-[3-(carboxymethoxy)-5-methyl-isoxazol-4-yl]propionic acid]
block of the effect of AMPA on spine motility ([2]; AMPA receptor antagonist applied with AMPA): entirely blocked

N[C@@H](CCCP(=O)(O)O)C(=O)O [APV]
effect of NMDA receptor blockade on spine motility [2]: equivalent
influence on the inhibition of motility by AMPA [2]: equivalent

CCOCC [Diethylether, diethylether]
Effective conc. for spine motility [3]: 20.4 mM
EC50 (tadpoles): 25 mM
concentration of saturated solution [4]: 816 mM
